Experimental data from ChEMBL document CHEMBL3734688, “Synthesis and evaluation of 6-methylcoumarin derivatives as potent and selective monoamine oxidase B inhibitors” (Medchemcomm, 2015).
pIC50: −log10 of the molar value.

Columns and labels:
[1] = biological target: T1, Amine oxidase [flavin-containing] A (Homo sapiens, UniProt P21397); test: Inhibition of recombinant human MAO-A using p-tyramine as substrate preincubated for 15 mins followed by substrate addition by Amplex Red probe-based fluorometric analysis
T1 sequence (P21397 whole entry): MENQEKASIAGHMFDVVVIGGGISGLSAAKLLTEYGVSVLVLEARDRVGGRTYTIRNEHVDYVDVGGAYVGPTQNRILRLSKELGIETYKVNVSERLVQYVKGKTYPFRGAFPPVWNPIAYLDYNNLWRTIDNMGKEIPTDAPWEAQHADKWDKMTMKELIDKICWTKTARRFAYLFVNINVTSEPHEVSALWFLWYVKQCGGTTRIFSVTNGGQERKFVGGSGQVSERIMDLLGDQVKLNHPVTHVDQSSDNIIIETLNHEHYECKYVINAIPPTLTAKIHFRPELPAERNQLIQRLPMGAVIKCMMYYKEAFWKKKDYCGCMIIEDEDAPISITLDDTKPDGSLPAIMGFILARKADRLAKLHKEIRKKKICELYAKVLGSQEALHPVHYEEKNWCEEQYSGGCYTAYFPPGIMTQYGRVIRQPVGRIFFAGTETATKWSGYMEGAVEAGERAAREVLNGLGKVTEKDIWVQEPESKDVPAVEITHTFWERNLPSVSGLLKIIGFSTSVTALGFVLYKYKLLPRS

Homo sapiens = species on record: Homo sapiens; test: Selectivity index, ratio of IC50 for recombinant human MAO-A to IC50 for recombinant human MAO-B
[2] = biological target: T2, Amine oxidase [flavin-containing] B (Homo sapiens, UniProt P27338); test: Inhibition of recombinant human MAO-B using p-tyramine as substrate preincubated for 15 mins followed by substrate addition by Amplex Red probe-based fluorometric analysis
T2 sequence (P27338 whole entry): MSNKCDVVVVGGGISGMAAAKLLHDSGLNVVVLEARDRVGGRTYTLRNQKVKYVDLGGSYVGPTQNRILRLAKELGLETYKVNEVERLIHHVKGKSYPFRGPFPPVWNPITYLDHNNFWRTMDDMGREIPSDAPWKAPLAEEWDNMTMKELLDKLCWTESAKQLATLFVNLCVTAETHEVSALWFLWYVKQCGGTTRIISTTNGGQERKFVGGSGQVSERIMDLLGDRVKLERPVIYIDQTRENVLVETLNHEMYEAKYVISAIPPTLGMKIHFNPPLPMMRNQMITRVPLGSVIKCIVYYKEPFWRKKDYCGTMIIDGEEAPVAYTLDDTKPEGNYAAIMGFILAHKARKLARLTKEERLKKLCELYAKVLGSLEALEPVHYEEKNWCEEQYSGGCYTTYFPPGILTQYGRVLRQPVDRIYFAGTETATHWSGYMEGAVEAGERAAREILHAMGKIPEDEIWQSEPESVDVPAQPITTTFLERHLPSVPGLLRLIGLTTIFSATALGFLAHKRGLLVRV

[3] = biological target: T1, Amine oxidase [flavin-containing] A; test: Inhibition of recombinant human MAO-A using p-tyramine as substrate at 100 uM preincubated for 15 mins followed by substrate addition by Amplex Red probe-based fluorometric analysis
HUVEC = test: Toxicity in HUVEC assessed as cell viability at 2.5 to 20 uM after 48 hrs by MTT assay; format: cell-based; conditions: human
SH-SY5Y = test: Neurotoxicity in human SH-SY5Y cells assessed as cell viability at 2.5 to 20 uM after 48 hrs by MTT assay; format: toxicity, cell-based
[4] = Neurotoxicity in rat PC12 cells assessed as cell viability at 2.5 to 20 uM after 48 hrs by MTT assay; format: toxicity, cell-based; conditions: pc-12, 48 h

| pIC50 [1] | Ratio IC50 (Homo sapiens) | pIC50 [2] | inhibition (INH) [3] | SMILES | Activity (HUVEC) | Activity (SH-SY5Y) | Activity [4] |
| --- | --- | --- | --- | --- | --- | --- | --- |
| 5.18 | 2.59 | 5.59 | – | Cc1ccc2oc(=O)c(-c3cccnc3)cc2c1 | – | – | – |
| 4.26 | 8.55 | 5.19 | – | Cc1ccc2oc(=O)c(-c3cccc4ccccc34)cc2c1 | – | – | – |
| 5.09 | 2.16 | 5.42 | – | Cc1ccc2oc(=O)c(-c3cccs3)cc2c1 | – | – | – |
| – | > 390 | 6.59 | Not Active | Cc1ccc2oc(=O)c(-c3ccccc3OCc3ccccc3)cc2c1 | – | – | – |
| – | > 140 | 6.15 | Not Active | CC(=O)Oc1cccc(-c2cc3cc(C)ccc3oc2=O)c1 | – | – | – |
| – | > 107 | 6.03 | Not Active | CC(=O)Oc1ccccc1-c1cc2cc(C)ccc2oc1=O | – | – | – |
| – | > 498 | 6.70 | Not Active | Cc1ccc2oc(=O)c(-c3cccc(OCc4ccccc4)c3)cc2c1 | – | – | – |
| 4.36 | 7.75 | 5.25 | – | Cc1ccc2oc(=O)c(-c3c[nH]c4ccccc34)cc2c1 | – | – | – |
| – | > 395 | 6.60 | Not Active | Cc1ccc2oc(=O)c(-c3ccccc3OCc3cccc(F)c3)cc2c1 | – | – | – |
| – | > 947 | 6.98 | Not Active | Cc1ccc2oc(=O)c(-c3ccc(OCc4ccccc4)cc3)cc2c1 | – | – | – |

The next lines start with the compound.

| SMILES | pIC50 [1] | Ratio IC50 (Homo sapiens) | pIC50 [2] | inhibition (INH) [3] | Activity (HUVEC) | Activity (SH-SY5Y) | Activity [4] |
| --- | --- | --- | --- | --- | --- | --- | --- |
| Cc1ccc2oc(=O)c(-c3cccc(OCCCCN(C)C)c3)cc2c1 | 4.57 | 23.6 | 5.95 | – | – | – | – |
| Cc1ccc2oc(=O)c(-c3cccc(OC(=O)N(C)C)c3)cc2c1 | – | > 22.6 | 5.35 | Not Active | – | – | – |
| Cc1ccc2oc(=O)c(-c3cccc(OC(=O)c4ccccc4)c3)cc2c1 | 4.80 | 24.2 | 6.19 | – | – | – | – |
| Cc1ccc2oc(=O)c(-c3cccc(OCCCN(C)C)c3)cc2c1 | 4.46 | 38.6 | 6.04 | – | – | – | – |
| Cc1ccc2oc(=O)c(-c3cccc(OCCCCBr)c3)cc2c1 | 4.39 | 3.79 | 4.97 | – | – | – | – |
| Cc1ccc2oc(=O)c(-c3ccc(OCc4cccc(F)c4)cc3)cc2c1 | – | > 572 | 6.76 | Not Active | – | – | – |
| Cc1ccc2oc(=O)c(-c3cccc(OCCCBr)c3)cc2c1 | 4.71 | 5.3 | 5.44 | – | – | – | – |
| Cc1ccc2oc(=O)c(-c3cccc(OCc4cccc(F)c4)c3)cc2c1 | – | > 1660 | 7.22 | Not Active | Non-toxic | Non-toxic | Non-toxic |
| Cc1ccc2oc(=O)c(-c3cccc(OCCBr)c3)cc2c1 | 4.68 | 8.47 | 5.61 | – | – | – | – |
| Cc1ccc(S(=O)(=O)Oc2cccc(-c3cc4cc(C)ccc4oc3=O)c2)cc1 | – | > 328 | 6.52 | Not Active | – | – | – |
| CC(=O)Oc1ccc(-c2cc3cc(C)ccc3oc2=O)cc1 | – | > 249 | 6.40 | Not Active | – | – | – |
| Cc1ccc2oc(=O)c(-c3cccc(OCCN(C)C)c3)cc2c1 | – | > 459 | 6.66 | Not Active | – | – | – |
